Laboratory results: patent US4892865A, “Pyrrolo[2,3-d]pyrimidine nucleosides as antiviral agents” (The Regents of the University of Michigan, priority 1987, dated 1990)
Like-named read-outs stand apart in the source and are kept apart here.

Columns and labels:
[1] = Visual cytotoxicity in uninfected HFF cells; assay type: cell-based; settings: human; visual cytotoxicity scored on uninfected HFF cells at time of HCMV plaque determination; read-out: 50% Inhibitory Concentration, Cytotoxicity: HFF
Description: (§1) KB cells, an established human cell line derived from an epidermoid oral carcinoma, were routinely grown in minimal essential medium (MEM) with Hanks salts [MEM(H)] supplemented with 5% fetal bovine serum. African green monkey kidney (BSC-1) cells and diploid human foreskin fibroblasts (HFF cells) were grown in MEM with Earle's salts [MEM(E)] supplemented with 10% fetal bovine serum. Cells were passaged according to conventional procedures as described in Shipman, C., Jr.; Smith, S. H.; Carlson, R. H.; Drach, J. C. Antimicrob. Agents Chemother., 1976, 9, 120. The plaque-purified isolate, PO, of the Towne strain of HCMV was used in all experiments and was a gift of Dr. Mark Stinski, University of Iowa. The S-148 strain of HSV-1 was provided by Dr. T. W. Schafer of Schering Corp. Stock preparations of HCMV and HSV-1 were prepared and titered as described in Turk, S. R.; Shipman, C., Jr.; Nassari, R.; Genzlinger, G.; Krawczyk, S. H.; Townsend, L. B.; Drach, J. C. Antimicrob. Agents Chemother., 1987, 31, 544.
(§2) Two basic tests for cellular cytotoxicity were routinely employed for compounds examined in antiviral assays. Cytotoxicity produced in HFF and BSC-1 cells was estimated by visual scoring of cells not affected by virus infection in the plaque reduction assays described above. Cytopathology was estimated at 35- and 60-fold magnification and scored on a zero to four plus basis on the day of staining for plaque enumeration. Cytotoxicity in KB cells was determined by measuring the effects of compounds on the incorporation of radioactive precursors into DNA, RNA and protein as described in Turk, S. R.; Shipman, C., Jr.; Nassari, R.; Genzlinger, G.; Krawczyk, S. H.; Townsend, L. B.; Drach, J. C. Antimicrob. Agents Chemother., 1987, 31, 544.
(§3) Dose-response relationships were constructed by linearly regressing the percent inhibition of parameters derived in the preceding sections against log drug concentrations. 50% inhibitory (I50) concentrations were calculated from the regression lines. The three I50 concentrations for inhibition of DNA, RNA and protein synthesis were averaged to give the values reported in Table I for KB cell cytotoxicity. Samples containing positive controls (acyclovir, ganciclovir, or vidarabine) were used in all assays. Results from sets of assays were rejected if inhibition by the positive control deviated from its mean response by more than 1.5 standard deviations.
(§4) ^b Visual cytotoxicity scored on uninfected HFF or BSC cells at time
(§5) of HCMV or HSV1 plaque determination.

[2] = test system: Human Cytomegalovirus (HCMV); assay: HCMV plaque reduction in HFF cells; assay type: cell-based, HCMV (Towne strain, isolate PO); human foreskin fibroblasts; settings: read-out: 50% Inhibitory Concentration, Virus Tested: HCMV
Description: as §1
(§6) HCMV plaque reduction experiments were performed using monolayer cultures of HFF cells by a procedure similar to that referenced above for titration of HCMV, with the exceptions that the virus inoculum (0.2 ml) contained approximately 50 PFU of HCMV and the compounds to be assayed were dissolved in the overlay medium. HSV-1 plaque reduction experiments were performed using monolayer cultures of BSC-1 cells. The assay was performed exactly as referenced above for HSV-1 titration assays except that the 0.2 ml of virus suspension contained approximately 100 PFU of HSV-1 and the compounds to be tested were dissolved in the overlay medium.
as §3

[3] = test system: Herpes Virus Type 1 (HSV-1); assay: HSV-1 plaque reduction in BSC-1 cells; assay type: cell-based; settings: read-out: 50% Inhibitory Concentration, Virus Tested: HSV-1
Description: as §1, §6, §3
^a In experiments with HSV1 both the HF and 148 strains were used.

[4] = Visual cytotoxicity in uninfected BSC-1 cells; assay type: cell-based; settings: african green monkey, visual cytotoxicity scored on uninfected BSC cells at time of HSV1 plaque determination, read-out: 50% Inhibitory Concentration, Cytotoxicity: BSC
Description: as §1, §2, §3, §4, §5

[5] = Cytotoxicity in KB cells (inhibition of DNA, RNA and protein synthesis); assay type: cell-based; settings: human, average of inhibition of DNA, read-out: 50% Inhibitory Concentration, Cytotoxicity: KB
Description: as §1, §2, §3
^c Average percent inhibition of DNA, RNA and protein synthesis
determined in KB cells as described in the text.

[6] = test system: Human Immunodeficiency Virus Type 1 (HIV-1); assay: CPE-inhibition assay with HIV-1 in ATH8 cells; assay type: cell-based; settings: Human immunodeficiency virus 1, ATH-8, 240 h, read-out: 50% Inhibitory Concentration, Virus Tested: HIV
Description: (§7) The human OKT4^+ T-cell clone, ATH8, was obtained from Dr. Samuel Broder's laboratory (NCI) through Dr. Hiroaki Mitsuya. These cells are propagated in RPMI 1640 medium supplemented with 4 mM glutamine, 15% heat-inactivated fetal bovine serum, antibiotics (50 units of penicillin and 50 μg of streptomycin per ml), and 50 units of recombinant-derived human interleukin-2 (ala-125; AMGen Biologicals) per ml. […]
The testing of compounds for antiviral activity employed the modified CPE-inhibition assay described in Mitsuya, H.; Weinhold, K. J.; Furman, P. A.; St. Clair, M. H.; Lehrman, S. N.; Gallo, R. C.; Bolognesi, D.; Barry, D. W.; Broder, S. Proc. Natl. Acad. Sci. USA, (1985) 82, 7096 and Mitsuya, H.; Broder, S. Proc. Natl. Acad. Sci. USA, 1986, 83 1911. […] The protective effect of test compounds was assessed by adding them at varying concentrations to the cultured cells at the time of virus infection, then monitoring the status of the cell pellet.
(§8) ATH8 cells were used as the primary targeted cells in the HIV-induced CPE-inhibition assay. […] These compounds were evaluated at seven half-log dilutions. […] On day 10 post-infection aliquots were taken from individual wells and the total cell number and cell viability (based on trypan-blue dye exclusion) determined. […]

[7] = Cytotoxicity in ATH8 cells (total cell number and viability, trypan-blue dye exclusion); assay type: cell-based; settings: human; uninfected ATH8 cells; read-out: 50% Inhibitory Concentration, Cytotoxicity: ATH8
Description: as §7, with “ml. The clone H9 cell lines, an OKT4^+ human T-cell line which is permissive for HIV replication but largely resistant to virus-induced CPE, H9 cells productively infected with the HTLV-IIIB strain of HIV, and H9 cells productively infected with the RF-II Haitian variant of HIV have been obtained from Dr. Robert Gallo's laboratory (NCI) through Dr. Howard Streicher.” for “ml.”
as §8
Dose-response relationships were constructed by linearly regressing the percent inhibition of parameters derived in the preceding sections against log drug concentrations. 50% inhibitory (I50) concentrations were calculated from the regression lines. […]

[8] = Human alphaherpesvirus 1, BSC-1, in Chlorocebus sabaeus
[9] = Human betaherpesvirus 5, plaque reduction, HFF cells
[10] = Human alphaherpesvirus 1, in Chlorocebus sabaeus, plaque reduction, BSC-1 cells, both the HF and 148 strains were used

Structure (SMILES) | CC50 [1] [µM] | IC50 ([2]; Human betaherpesvirus 5, HFF) [µM] | IC50 [3, 8] [µM] | CC50 [4] [µM] | CC50 [5] [µM] | IC50 [6] [µM] | CC50 [7] [µM] | IC50 [2, 9] [µM] | IC50 [3, 10] [µM] | IC50 ([6]; ATH8 cells, day 10 post-infection) [µM]
NC(=O)c1cn([C@H]2CC[C@@H](CO)O2)c2ncnc(N)c12 [Dideosysangivamycin, 4-amino-7-(2',3'-dideoxy-β-D-ribofuranosyl)pyrrolo[2,3-d]-pyrimidine-5-carboxamide] | > 100 | > 100 | > 100 | > 100 | > 100 | 3 | 100 | – | – | –
N#Cc1cn([C@H]2CC[C@@H](CO)O2)c2ncnc(N)c12 [Dideoxytoyocamycin, 4-amino-5-cyano-7-(2',3'-dideoxy-β-D-ribofuranosyl)-pyrrolo-[2,3-d]-pyrimidine] | > 100 | – | – | > 100 | 54 | – | 100 | 18 | 21 | 3
NC(=O)c1cn([C@H]2C=C[C@@H](CO)O2)c2ncnc(N)c12 [Dideoxydidehydrosangivamycin, 4-amino-7-(2',3'-dideoxy-2',3'-didehydro-β-D-ribofuranosyl)-pyrrolo-[2,3-d]pyrimidine-5-carboxamide] | > 100 | > 100 | > 100 | > 100 | 54 | – | – | – | – | –
Nc1ncnc2c1ccn2[C@H]1CC[C@@H](CO)O1 [Dideoxytubercidin, 4-amino-7-(2',3'-dideoxy-β-D-ribofuranosyl)pyrrolo[2,3-d]-pyrimidine] | > 100 | – | – | > 100 | – | – | – | > 100 | > 100 | –
N#Cc1cn([C@H]2C=C[C@@H](CO)O2)c2ncnc(N)c12 [Dideoxydidehydrotoyocamycin, 4-amino-5-cyano-7-(2',3'-dideoxy-2',3'-didehydro-β-D-glycero-pentofuranosyl)-pyrrolo[2,3-d]pyrimidine] | > 100 | – | – | > 100 | > 100 | – | – | 5.1 | 41 | –
Nc1ncnc2c1ccn2[C@H]1C=C[C@@H](CO)O1 [Dideoxydidehydrotubercidin, 4-amino-7(2',3'-dideoxy-2',3'-didehydro-β-ribofuranosyl)-pyrrolo[2,3-d] pyrimidine] | > 100 | – | – | > 100 | – | – | – | > 100 | > 100 | –
